From patent US11319298B2 (Merck Sharp & Dohme Corp., priority 2016, dated 2022)

What follows are molecules tested against T1, human M4 muscarinic acetylcholine receptor (Homo sapiens, UniProt P08173) (assay: human FLIPR-based M4 PAM assay, CHO-K1 cells stably transfected with human M4 receptor and chimeric G-protein Gαqi5). Details: inflection point (IP) of dose response curve; acetylcholine added at 20% of maximum response; CHO-K1 human M4/Gαqi5, FLIPR Tetra.
T1 construct: expressed in transfected cells; host or cells: CHO-K1
T1 sequence (P08173 1-479): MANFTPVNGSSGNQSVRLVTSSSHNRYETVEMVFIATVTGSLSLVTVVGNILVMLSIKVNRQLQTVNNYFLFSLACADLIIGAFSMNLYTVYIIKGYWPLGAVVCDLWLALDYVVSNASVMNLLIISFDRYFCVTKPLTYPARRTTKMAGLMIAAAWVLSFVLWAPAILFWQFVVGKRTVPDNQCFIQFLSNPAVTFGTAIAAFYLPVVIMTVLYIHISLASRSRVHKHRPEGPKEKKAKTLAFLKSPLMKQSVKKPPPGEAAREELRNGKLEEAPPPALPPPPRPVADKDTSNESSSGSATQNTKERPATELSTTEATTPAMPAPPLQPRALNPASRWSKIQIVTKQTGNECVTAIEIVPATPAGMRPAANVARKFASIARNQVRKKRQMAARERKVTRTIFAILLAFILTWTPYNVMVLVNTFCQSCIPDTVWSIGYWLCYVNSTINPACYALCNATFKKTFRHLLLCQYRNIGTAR
Format: cell-based
Protocol: In a typical experiment the M4 muscarinic acetylcholine receptor modulating activity of the compounds of the present invention was determined in accordance with the following experimental method. CHO-K1 cells stably transfected with human M4 receptor and chimeric G-protein Gαqi5 (Coward P, et al., Analytical Biochemistry, 270:242-248 (1999)) are thawed from liquid N2 storage, resuspended in growth medium, plated in black, clear bottom 384 well plates, and incubated 16-20 hours at 37° C., 5% CO2. On the day of assay, growth medium is removed, the cells are washed 2 times with wash buffer, and cells are incubated in dye loading buffer at 37° C., 5% CO2 for ˜1 hour. Following dye loading the cell plates are placed in a FLIPR Tetra instrument and while monitoring dye fluorescence (excitation […]), 10 uL of test substance at increasing concentrations is added, and fluorescence values are recorded for 4 min. Next, 10 uL of acetylcholine is added (final concentration calculated so as to achieve 20% of the maximum acetycholine response), and the fluorescence reading is continued for 3.5 min. In some cases, a third addition of acetylcholine (final concentration calculated to achieve 70% of the maximal acetylcholine response) is performed. The resulting dose response curves are fit to a 4 parameter logistic equation and the final result is determined as the inflection point (IP) of the curve
CHO-K1 cells stably transfected with human M4 receptor and chimeric G-protein Gαqi5 are thawed from liquid N2 storage, resuspended in growth medium, plated in black, clear bottom 384 well plates, and incubated 16-20 hours at 37° C., 5% CO2.
On the day of assay, growth medium is removed, the cells are washed 2 times with wash buffer, and cells are incubated in dye loading buffer at 37° C., 5% CO2 for ˜1 h. Following dye loading the cell plates are placed in a FLIPR Tetra instrument and while monitoring dye fluorescence ([…]), 10 uL of test substance at increasing concentrations is added, and fluorescence values are recorded for 4 min. Next, 10 uL of acetylcholine is added (final concentration calculated so as to achieve 20% of the maximum acetycholine response), and the fluorescence reading is continued for 3.5 min. In some cases, a third addition of acetylcholine (final concentration calculated to achieve 70% of the maximal acetylcholine response) is performed.

Row | Compound | EC50 [µM]
1 | COc1ccc(OC2CCN(c3nc(C)c(C(N)=O)cc3C)CC2)cn1 [Example 191, 6-{4-[(6-methoxypyridin-3-yl)oxy]piperidin-1-yl}-2,5-dimethypyridine-3-carboxamide] | 2.96
2 | Cc1c(Cl)ncnc1N1CCC(Oc2ccc3c(cnn3C)c2)CC1 [Example 60, 5-((1-(6-chloro-5-methylpyrimidin-4-yl)piperidin-4-yl)oxy)-1-methyl-1H-indazole] | 0.067
3 | COc1ccc(OC2CCN(c3nc(CO)nc(Cl)c3C)CC2)cc1 [Example 47, (4-chloro-6-(4-(4-methoxyphenoxy)piperidin-1-yl)-5-methypyrimidin-2-yl)methanol] | 0.025
4 | Cc1c(Cl)nc(CO)nc1N1CCC(Oc2ccc3c(c2)C(=O)CO3)CC1 [Example 91, 5-((1-(6-chloro-2-(hydroxymethyl)-5-methylpyrimidin-4-yl)piperidin-4-yl)oxy)benzofuran-3(2H)-one] | 0.027
5 | CCOC(=O)c1cc(C)c(N2CCC(Oc3ccc(OC)nc3)CC2)nn1 [Example 105A, ethyl 6-(4-((6-methoxypridin-3-yl)oxy)piperidin-1-yl)-5-methylpyridazine-3-carboxylate] | 0.17
6 | COC(=O)c1cc(C(=O)OC)c(N2CCC(Oc3ccc(OC)nc3)CC2)nc1C#N [Example 46, dimethyl 2-cyano-6-(4-((6-methoxypyridin-3-yl)oxy)piperidin-1-yl)pyridine-3,5-dicarboxylate] | 0.939
7 | COc1ccc(OC2CCN(c3nnc(C(=O)NCc4cc(C)n(C)n4)cc3C)CC2)cn1 [Example 155, N-[(1,5-dimethyl-1H-pyrazol-3-yl)methyl]-6-{4-[(6-methoxypyridin-3-yl)oxy]piperidin-1-yl}-5-methylpyridazine-3-carboxamide] | 0.265
8 | COc1ccc(OC2CCN(c3nc(SC)nc(Cl)c3C)CC2)cn1 [Example 82, 4-chloro-6-(4-((6-methoxypyridin-3-yl)oxy)piperidin-1-yl)-5-methyl-2-(methylthio)pyrimidine] | 0.385
9 | COc1ccc(OC2CCN(c3nc(SC)ncc3C#N)CC2)cn1 [Example 85, 4-(4-((6-methoxypyridin-3-yl)oxy)piperidin-1-yl)-2-(methylthio)pyrimidine-5-carbonitrile] | 1.15
10 | COc1ccc(O[C@@H]2CCN(c3nc(C)ncc3C)C[C@@H]2F)cn1 [Example 84, 4-((3S,4R)-3-fluoro-4-((6-methoxypyridin-3-yl)oxy)piperidin-1-yl)-2,5-dimethylpyrimidine] | 0.574
11 | COCc1nc(Cl)c(C)c(N2CCC(Oc3ccc(OC)nc3)CC2)n1 [Example 78, 4-chloro-2-(methoxymethyl)-6-(4-((6-methoxypyridin-3-yl)oxy)piperidin-1-yl)-5-methylpyrimidine] | 0.187
12 | Cc1ncc(C)c(N2CC[C@@H](Oc3cccc(C#N)c3)[C@H](F)C2)n1 [Example 71, 3-(((3R,4R)-1-(2,5-dimethylpyrimidin-4-yl)-3-fluoropiperidin-4-yl)oxy)benzonitrile] | 0.135
13 | COc1ccc(OC2CCN(c3nc(CO)nc(Cl)c3C)CC2)cc1C#N [Example 48, 5-((1-(6-chloro-2-(hydroxymethyl)-5-methylpyrimidin-4-yl)piperidin-4-yl)oxy)-2-methoxybenzonitrile] | 0.044
14 | COc1ccc(OC2CCN(c3nc(C(=O)NC4CCc5cccnc5C4)nc(Cl)c3C)CC2)cn1 (stereo not drawn) [Example 217, 4-chloro-6-(4-((6-methoxypyridin-3-yl)oxy)piperidin-1-yl)-5-methyl-N-(5,6,7,8-tetrahydroquinolin-7-yl)pyrimidine-2-carboxamide] | 1.02
15 | COc1ccc(OC2CCN(c3nnc(C(=O)NC4CCc5ccncc5C4)cc3C)CC2)cn1 (stereo not drawn) [Example 159, 6-{4-[(6-methoxypyridin-3-yl)oxy]piperidin-1-yl}-5-methyl-N-(5,6,7,8-tetrahydroisoquinolin-7-yl)pyridazine-3-carboxamide] | 0.293
16 | Cc1cc(C(=O)N[C@H]2CCc3cccnc3C2)nnc1N1CCC(Oc2cccc(C#N)c2)CC1 [Example 164A, (S)-6-[4-(3-cyanophenoxy)piperidin-1-yl]-5-methyl-N-(5,6,7,8-tetrahydroquinolin-7-yl)pyridazine-3-carboxamide] | 0.434
17 | COc1ccc(OC2CCN(c3nc(C(=O)N[C@H]4CCCc5ccccc54)nc(Cl)c3C)CC2)cn1 [Example 224, (S)-4-chloro-6-(4-((6-methoxypyridin-3-yl)oxy)piperidin-1-yl)-5-methyl-N-(1,2,3,4-tetrahydronaphthalen-1-yl)pyrimidine-2-carboxamide] | 4.85
18 | COc1ncc(C#N)c(N2CCC(Oc3cccc(C#N)c3)CC2)n1 [Example 88, 4-(4-(3-cyanophenoxy)piperidin-1-yl)-2-methoxypyrimidine-5-carbonitrile] | 1.53
19 | Cc1cc(C(=O)NC2CCc3cccnc3C2)nnc1N1CCC(OCC2CC2)CC1 (stereo not drawn) [Example 144, 6-[4-(cyclopropylmethoxy)piperidin-1-yl]-5-methyl-N-(5,6,7,8-tetrahydroquinolin-7-yl)pyridazine-3-carboxamide] | 0.193
20 | COc1ccc(OC2CCN(c3nc(C(N)=O)nc(Cl)c3C)CC2)cn1 [Example 206, 4-chloro-6-(4-((6-methoxypyridin-3-yl)oxy)piperidin-1-yl)-5-methylpyrimidine-2-carboxamide] | 0.168
21 | Cc1cc(C(=O)NCc2ccncc2)nnc1N1CCC(Oc2ccc3c(c2)OCCO3)CC1 [Example 108, 6-[4-(2,3-dihydro-1,4-benzodioxin-6-yloxy)piperidin-1-yl]-5-methyl-N-(pyridin-4-ylmethyl)pyridazine-3-carboxamide] | 0.018
22 | COc1ccc(OC2CCN(c3nnc(C(=O)NCc4ccccc4)cc3C)CC2)cn1 [Example 193, N-benzyl-6-{4-[(6-methoxypyridin-3-yl)oxy]piperidin-1-yl}-5-methylpyridazine-3-carboxamide] | 0.035
23 | COc1ccc(OC2CCN(c3nnc(C(=O)NCc4ccncn4)cc3C)CC2)cn1 [Example 150, 6-{4-[(6-methoxypyridin-3-yl)oxy]piperidin-1-yl}-5-methyl-N-(pyrimidin-4-ylmethyl)pyridazine-3-carboxamide] | 0.233
24 | COc1ccc(OC2CCN(c3nc(C(=O)NC4CCCc5cnccc54)nc(Cl)c3C)CC2)cn1 (stereo not drawn) [Example 214, 4-chloro-6-(4-((6-methoxypyridin-3-yl)oxy)piperidin-1-yl)-5-methyl-N-(5,6,7,8-tetrahydroisoquinolin-5-yl)pyrimidine-2-carboxamide] | 0.77
25 | COc1ccc(OC2CCN(c3nnc(C(=O)N[C@@H]4CCc5ccncc5C4)cc3C)CC2)cn1 (single isomer, unassigned) [Example 107A] | 0.182
26 | COc1ccc(OC2CCN(c3nc(CO)nc(C)c3C)CC2)cn1 [Example 241, (4-(4-((6-Methoxypyridin-3-yl)oxy)piperidin-1-yl)-5,6-dimethylpyrimidin-2-yl)methanol] | 0.042
27 | COc1ccc(OC2CCN(c3nnc(C(=O)NCc4ccn[nH]4)cc3C)CC2)cn1 [Example 119, 6-{4-[(6-methoxypyridin-3-yl)oxy]piperidin-1-yl}-5-methyl-N-(1H-pyrazol-5-ylmethyl)pyridazine-3-carboxamide] | 0.095
